Several values for one entry are separate records, joined by “and”; a condition that tells them apart may be missing. Identical values can stand only once.
System: 653999-131-R-J2-PDC complex spheroids, growth % test/control
Assay: Anticancer human tumor 653999-131-R-J2-PDC patient-derived lung adenocarcinoma cell line growth inhibition [AhR]
Settings: for viability, T/C: stronger effect = lower value
Procedure, shortened: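 Agents were dosed in half-log steps down from roughly clinical Cmax, or from 10 microM where Cmax was unknown, alone and with AhR antagonists. Read-out: percent test/control growth of tumor spheroids containing HUVEC and MSC stromal cells.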

[1] = curve of first compound, second compound 0.1 µM
[2] = curve of first compound, second compound 0.316 µM
[3] = curve of first compound, second compound 1 µM
[4] = curve of first compound, second compound 3.16 µM
[5] = curve of first compound, second compound 10 µM
[6] = second compound 0.1 µM, first compound 0.0316 µM
[7] = second compound 0.1 µM, first compound 0.1 µM
[8] = second compound 0.1 µM, first compound 0.316 µM
[9] = second compound 0.1 µM, first compound 1 µM
[10] = second compound 0.1 µM, first compound 3.16 µM
[11] = second compound 0.1 µM, first compound 10 µM
[12] = second compound 0.316 µM, first compound 0.0316 µM
[13] = second compound 0.316 µM, first compound 0.1 µM
[14] = second compound 0.316 µM, first compound 0.316 µM
[15] = second compound 0.316 µM, first compound 1 µM
[16] = second compound 0.316 µM, first compound 3.16 µM
[17] = second compound 0.316 µM, first compound 10 µM
[18] = second compound 1 µM, first compound 0.0316 µM
[19] = second compound 1 µM, first compound 0.1 µM
[20] = second compound 1 µM, first compound 0.316 µM
[21] = second compound 1 µM, first compound 1 µM
[22] = second compound 1 µM, first compound 3.16 µM
[23] = second compound 1 µM, first compound 10 µM
[24] = second compound 3.16 µM, first compound 0.0316 µM
[25] = second compound 3.16 µM, first compound 0.1 µM
[26] = second compound 3.16 µM, first compound 0.316 µM
[27] = second compound 3.16 µM, first compound 1 µM
[28] = second compound 3.16 µM, first compound 3.16 µM
[29] = second compound 3.16 µM, first compound 10 µM
[30] = second compound 10 µM, first compound 0.0316 µM
[31] = second compound 10 µM, first compound 0.1 µM
[32] = second compound 10 µM, first compound 0.316 µM
[33] = second compound 10 µM, first compound 1 µM
[34] = second compound 10 µM, first compound 3.16 µM
[35] = second compound 10 µM, first compound 10 µM
[36] = second compound 0.1 µM, first compound 0.00949 µM
[37] = second compound 0.1 µM, first compound 0.03 µM
[38] = second compound 0.1 µM, first compound 0.0949 µM
[39] = second compound 0.1 µM, first compound 0.3 µM
[40] = second compound 0.1 µM, first compound 0.949 µM
[41] = second compound 0.1 µM, first compound 3 µM
[42] = second compound 0.316 µM, first compound 0.00949 µM
[43] = second compound 0.316 µM, first compound 0.03 µM
[44] = second compound 0.316 µM, first compound 0.0949 µM
[45] = second compound 0.316 µM, first compound 0.3 µM
[46] = second compound 0.316 µM, first compound 0.949 µM
[47] = second compound 0.316 µM, first compound 3 µM
[48] = second compound 1 µM, first compound 0.00949 µM
[49] = second compound 1 µM, first compound 0.03 µM
[50] = second compound 1 µM, first compound 0.0949 µM
[51] = second compound 1 µM, first compound 0.3 µM
[52] = second compound 1 µM, first compound 0.949 µM
[53] = second compound 1 µM, first compound 3 µM
[54] = second compound 3.16 µM, first compound 0.00949 µM
[55] = second compound 3.16 µM, first compound 0.03 µM
[56] = second compound 3.16 µM, first compound 0.0949 µM
[57] = second compound 3.16 µM, first compound 0.3 µM
[58] = second compound 3.16 µM, first compound 0.949 µM
[59] = second compound 3.16 µM, first compound 3 µM
[60] = second compound 10 µM, first compound 0.00949 µM
[61] = second compound 10 µM, first compound 0.03 µM
[62] = second compound 10 µM, first compound 0.0949 µM
[63] = second compound 10 µM, first compound 0.3 µM
[64] = second compound 10 µM, first compound 0.949 µM
[65] = second compound 10 µM, first compound 3 µM
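Further: spheroids exposed to agents for seven days.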
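Wherever viability, T/C is given: 100% = DMSO vehicle control viability.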

CC1COCCN1c1cc(C2(S(C)(=N)=O)CC2)nc(-c2ccnc3[nH]ccc23)n1 (configuration not stated) + Cc1ccccc1N=Nc1ccc(NC(=O)c2ccnn2C)c(C)c1
IC50 [1]: 8830 nM | IC50 [2]: 7290 nM | IC50 [3]: 8180 nM | IC50 [4]: 7120 nM | IC50 [5]: 6750 nM | viability, T/C [6]: 110% | viability, T/C [7]: 90.1% | viability, T/C [8]: 110% | viability, T/C [9]: 83.5% | viability, T/C [10]: 71.2% | viability, T/C [11]: 47.3% | viability, T/C [12]: 98.3% | viability, T/C [13]: 102% | viability, T/C [14]: 106% | viability, T/C [15]: 94.5% | viability, T/C [16]: 63% | viability, T/C [17]: 45.1% | viability, T/C [18]: 93.4% | viability, T/C [19]: 95.3% | viability, T/C [20]: 94.5% | viability, T/C [21]: 84% | viability, T/C [22]: 65.9% | viability, T/C [23]: 46.6% | viability, T/C [24]: 98% | viability, T/C [25]: 86% | viability, T/C [26]: 92.8% | viability, T/C [27]: 80.8% | viability, T/C [28]: 70.1% | viability, T/C [29]: 41.6% | viability, T/C [30]: 94.3% | viability, T/C [31]: 83% | viability, T/C [32]: 80.8% | viability, T/C [33]: 71.2% | viability, T/C [34]: 63.3% | viability, T/C [35]: 42.8%

COc1cc(C2c3cc4c(cc3C(OC3OC5COC(C)OC5C(O)C3O)C3COC(=O)C23)OCO4)cc(OC)c1O (configuration not stated) + Cc1ccccc1N=Nc1ccc(NC(=O)c2ccnn2C)c(C)c1
IC50 [1]: 846 nM | IC50 [2]: 568 nM | IC50 [3]: 513 nM | IC50 [4]: 965 nM | IC50 [5]: 962 nM | viability, T/C [6]: 86% | viability, T/C [7]: 76% | viability, T/C [8]: 58.6% | viability, T/C [9]: 48.8% | viability, T/C [10]: 38.1% | viability, T/C [11]: 28.3% | viability, T/C [12]: 86.2% | viability, T/C [13]: 68.6% | viability, T/C [14]: 54% | viability, T/C [15]: 47.3% | viability, T/C [16]: 34% | viability, T/C [17]: 29.1% | viability, T/C [18]: 90.2% | viability, T/C [19]: 72.6% | viability, T/C [20]: 53.7% | viability, T/C [21]: 42.8% | viability, T/C [22]: 37.7% | viability, T/C [23]: 30.2% | viability, T/C [24]: 80% | viability, T/C [25]: 77.4% | viability, T/C [26]: 62% | viability, T/C [27]: 46.1% | viability, T/C [28]: 42.5% | viability, T/C [29]: 27.7% | viability, T/C [30]: 72.6% | viability, T/C [31]: 68.7% | viability, T/C [32]: 58% | viability, T/C [33]: 49% | viability, T/C [34]: 41.4% | viability, T/C [35]: 31.8%

Nc1ncn(C2CC(O)C(CO)O2)c(=O)n1 (configuration not stated) + Cc1cncc(-c2nc(NCCc3c[nH]c4ccccc34)c3ncn(C(C)C)c3n2)c1
IC50 [1]: > 1000 nM | IC50 [2]: > 1000 nM | IC50 [3]: > 1000 nM | IC50 [4]: > 1000 nM | IC50 [5]: 210 nM | viability, T/C (second compound 0.1 µM, first compound 0.00316 µM): 96.2% | viability, T/C (second compound 0.1 µM, first compound 0.01 µM): 86.1% | viability, T/C [6]: 92.3% | viability, T/C [7]: 86.5% | viability, T/C [8]: 88.2% | viability, T/C [9]: 77.5% | viability, T/C (second compound 0.316 µM, first compound 0.00316 µM): 91.2% | viability, T/C (second compound 0.316 µM, first compound 0.01 µM): 94% | viability, T/C [12]: 90.8% | viability, T/C [13]: 85.1% | viability, T/C [14]: 87.7% | viability, T/C [15]: 83.6% | viability, T/C (second compound 1 µM, first compound 0.00316 µM): 106% | viability, T/C (second compound 1 µM, first compound 0.01 µM): 108% | viability, T/C [18]: 99.2% | viability, T/C [19]: 99.2% | viability, T/C [20]: 94.1% | viability, T/C [21]: 82% | viability, T/C (second compound 3.16 µM, first compound 0.00316 µM): 98.7% | viability, T/C (second compound 3.16 µM, first compound 0.01 µM): 95.2% | viability, T/C [24]: 106% | viability, T/C [25]: 98.3% | viability, T/C [26]: 96.9% | viability, T/C [27]: 90.2% | viability, T/C (second compound 10 µM, first compound 0.00316 µM): 54.6% | viability, T/C (second compound 10 µM, first compound 0.01 µM): 52.4% | viability, T/C [30]: 54% | viability, T/C [31]: 51.9% | viability, T/C [32]: 49.2% | viability, T/C [33]: 47.2%

O=C(C=Cn1cnc(-c2cc(C(F)(F)F)cc(C(F)(F)F)c2)n1)NNc1cnccn1 + Cc1ccccc1N=Nc1ccc(NC(=O)c2ccnn2C)c(C)c1
IC50 [1]: 839 nM | IC50 [2]: 586 nM | IC50 [3]: 864 nM | IC50 [4]: 1960 nM | IC50 [5]: > 3000 nM | viability, T/C [36]: 106% | viability, T/C [37]: 76.8% | viability, T/C [38]: 72.7% | viability, T/C [39]: 49.5% | viability, T/C [40]: 48.9% | viability, T/C [41]: 48% | viability, T/C [42]: 91.8% | viability, T/C [43]: 93.3% | viability, T/C [44]: 70.5% | viability, T/C [45]: 55.8% | viability, T/C [46]: 45.3% | viability, T/C [47]: 47.9% | viability, T/C [48]: 94.4% | viability, T/C [49]: 91.1% | viability, T/C [50]: 66% | viability, T/C [51]: 56.9% | viability, T/C [52]: 49.3% | viability, T/C [53]: 47.4% | viability, T/C [54]: 105% | viability, T/C [55]: 81.1% | viability, T/C [56]: 75.9% | viability, T/C [57]: 58.4% | viability, T/C [58]: 55.7% | viability, T/C [59]: 47% | viability, T/C [60]: 85.7% | viability, T/C [61]: 83.8% | viability, T/C [62]: 66.7% | viability, T/C [63]: 53.6% | viability, T/C [64]: 52% | viability, T/C [65]: 49%

COc1cc(Nc2ncc3c(n2)-c2ccc(Cl)cc2C(c2c(F)cccc2OC)=NC3)ccc1C(=O)O
viability, T/C (compound 0.0316 µM): 93.1% and 93.5% and 98% | viability, T/C (compound 0.1 µM): 73% and 85% and 75.2% | viability, T/C (compound 0.316 µM): 75.1% and 70.2% and 68.6% | viability, T/C (compound 1 µM): 71.5% and 66.9% and 67.2% | viability, T/C (compound 3.16 µM): 66.2% and 68.2% and 70.6% | viability, T/C (compound 10 µM): 60.7% and 64.3% and 65.4% | IC50 (curve of compound): > 10000 nM

CCN(c1cc(-c2ccc(CN3CCOCC3)cc2)cc(C(=O)NCc2c(C)cc(C)[nH]c2=O)c1C)C1CCOCC1 + Cc1ccccc1N=Nc1ccc(NC(=O)c2ccnn2C)c(C)c1
IC50 [1]: > 3000 nM | IC50 [2]: > 3000 nM | IC50 [3]: > 3000 nM | IC50 [4]: > 3000 nM | IC50 [5]: > 3000 nM | viability, T/C [36]: 92.9% | viability, T/C [37]: 102% | viability, T/C [38]: 97.9% | viability, T/C [39]: 103% | viability, T/C [40]: 97.8% | viability, T/C [41]: 92.7% | viability, T/C [42]: 93.2% | viability, T/C [43]: 95.6% | viability, T/C [44]: 95.5% | viability, T/C [45]: 95.3% | viability, T/C [46]: 93.3% | viability, T/C [47]: 92.5% | viability, T/C [48]: 91.6% | viability, T/C [49]: 95.2% | viability, T/C [50]: 89% | viability, T/C [51]: 91.8% | viability, T/C [52]: 88.3% | viability, T/C [53]: 93% | viability, T/C [54]: 102% | viability, T/C [55]: 96.1% | viability, T/C [56]: 92.8% | viability, T/C [57]: 89.5% | viability, T/C [58]: 86.3% | viability, T/C [59]: 84% | viability, T/C [60]: 82.1% | viability, T/C [61]: 80.8% | viability, T/C [62]: 81.6% | viability, T/C [63]: 86.1% | viability, T/C [64]: 78.8% | viability, T/C [65]: 79.9%
